Source: patent US20130184338A1, “PHENYLPROPYL CARBAMATE DERIVATIVES FOR USE IN PREVENTING OR TREATING MULTIPLE SCLEROSIS” (Bio-Pharm Solutions Co., Ltd., priority 2011, published 2013)
Marks after values point to notes of the source that are not given here.

Assays:
male mice (ICR) [1] = assay: Muscle relaxation: grip strength; assay type: in vivo; details: intraperitoneal; for ED50: Mus musculus, ip, at time of maximum effect, 50% of activity vs vehicle only, read-out: MR test ED50, III = Grip strength
Experimental: (§1) For testing, male mice (ICR) were purchased from ORIENT BIO INC. (Korea), divided into several groups with 6 mice in each group, and were adapted for 4-5 days. The mice having the weight ranging from 19 g to 26 g were employed for the test. The pharmacological effect of the test compounds on muscle relaxation was evaluated by Rotarod test, grip strength test, and muscular force (wire hang) test. All mice were adapted to the test environment at one hour before starting the tests. The pharmacological effects of all the test compounds were evaluated by administration through peritoneal cavity of the mice (10 ul/g, bw).
A grip strength test using the test animals' forelimbs was performed using an instrument equipped with triangle ring and designed so as to easily grip with the forelimbs of experimental animals, manufactured from Ugo Basile Inc. (Ugo Basile, Model47106, Italy). The test was conducted before and after administration of the compounds to evaluate the effects thereof. […] The mouse was made to grip the rod with its forelimbs, and its tail was pulled, where the force at which the mouse detached from the rod was recorded. The instrument indicated the force in grams. All of the mice were given […] for test, and the 3 highest values among the test opportunities were selected and the mean value was used as the test result. This experimentation was conducted according to the method described in the reference, ‘Nevins et al. (1993) Quantitative grip strength assessment as a means of evaluating muscle relaxation in mice. Psychopharmacol. 110: 92-96’.
(§2) The results of muscle relaxation activity of the phenyl carbamate compounds measured in above Experimental Examples 11.2 to 11.5 are shown in following Table 5.

male mice (ICR) [2] = assay: Muscle relaxation: wire hang; assay type: in vivo; details: intraperitoneal; for ED50: Mus musculus, at time of maximum effect, 50% of activity vs vehicle only, read-out: MR test ED50, IV = Wire hang; for IV = Wire hang, effect (%) compared to control treated with vehicle only: concentration administered 100 mg/kg
Experimental: as §1
This experimentation was conducted using a metal wire of 30 cm in length, which was suspended between two pillars at a height of about 40 cm from the bottom covered with a soft pad. […] Each mouse was made to grip the wire using two forelimbs, and the elapse time before the mouse fell off from the wire to the pad on the bottom was recorded in seconds. Each mouse was given 5 opportunities for this test at an interval of 2 minutes period. The highest 3 records among the test opportunities were selected and the mean value was used as the test result. This experimentation was conducted according to the method described in the reference, ‘Jacqueline N. Crawley (1999) Behavioral phenotyping of transgenic and knockout mice: experimental design and evaluation of general health, sensory functions, motor abilities, and specific behavioral tests. Brain Res. 835: 18-26’.
as §2

male ICR mice = assay: MES (Maximal Electroshock Seizure) test in mice; details: Mus musculus, po; for ED50: read-out: MES test (po) ED50
male mice (ICR) [3] = assay: Muscle relaxation: endurance time on rotarod rotating at accelerated speed; assay type: in vivo; details: Mus musculus, ip; intraperitoneal, at time of maximum effect; 50% of activity vs vehicle only; read-out: MR test ED50, I = Acc. Rotarod
Experimental: as §1
At 24 hours before testing, the mice to be tested were preliminarily trained for 5 minutes on a rod rotating at the rate of 6 revolutions per a minute. The pharmacological effect on muscle relaxation of the test compounds were evaluated by observing the mice on a rod for 5 minutes, where the rod was accelerated from 4 to 40 revolutions per a minute during the test time. The endurance time that each mouse endures on the acceleratedly rotated rod without falling off from the rod was recorded. As test time for evaluation, a maximum of 5 minutes was applied. […] This experimentation was conducted according to the method described in the reference, ‘Monville et al. (2006) Comparison of incremental and accelerating protocol of the rotarod test for the assessment of motor deficits in the 6-OHDA model. J. Neurosci. Meth. 158: 219-223’.
as §2

male mice (ICR) [4] = assay: Muscle relaxation: residence time on rotarod rotating at fixed speed (15 r.p.m.); assay type: in vivo; details: Mus musculus, ip, read-out: MR test ED50, II = Fixed 15 r.p.m. Rotarod
[5] = read-out: MES test (po) Protection %
[6] = intraperitoneal, at time of maximum effect, 50% of activity vs vehicle only

Structure (SMILES) | ED50 (male mice (ICR) [1]) | ED50 (male mice (ICR) [2]) | ED50 (male mice (ICR) [3]) | ED50 (male mice (ICR) [4]; [6]) | also measured
CC(OC(=O)NC1CC1)C(O)c1ccccc1Cl (racemic) [Compound 32, 1-(2-chlorophenyl)-1-hydroxypropyl-2-N-cyclopropylcarbamate] | 45.2 mg/kg | 36.6 mg/kg |  |  | responders at 200 mg/kg (male ICR mice; [5]): 100%
CC(C)NC(=O)O[C@@H](C)[C@@H](O)c1ccccc1Cl [Compound 17, 1-(2-chlorophenyl)-(S)-1-hydroxypropyl-(R)-2-N-isopropylcarbamate] | 91.5 mg/kg | 41.4 mg/kg | 73.1 mg/kg | 66.4 mg/kg | 
C[C@H](OC(=O)NC1CCCCC1)[C@@H](O)c1ccccc1Cl [Compound 19, 1-(2-chlorophenyl)-(S)-1-hydroxypropyl-(R)-2-N-cyclohexyl carbamate] | 110 mg/kg | 28.5 mg/kg | 95.3 mg/kg |  | 
C[C@@H](OC(N)=O)[C@H](O)c1ccccc1Cl [Compound 2, 1-(2-chlorophenyl)-(R)-1-hydroxypropyl-(R)-2-carbamate] | 110 mg/kg | 43.3 mg/kg | 66.3 mg/kg | 76.5 mg/kg | ED50 (male ICR mice): 51 mg/kg
CCCNC(=O)O[C@H](C)[C@H](O)c1ccccc1Cl [Compound 23, 1-(2-chlorophenyl)-(R)-1-hydroxypropyl-(R)-2-N-propylcarbamate] | 73.8 mg/kg | 46 mg/kg |  |  | responders at 200 mg/kg (male ICR mice; [5]): 25%
C[C@@H](OC(N)=O)[C@H](O)c1ccccc1F [Compound 64, 1-(2-fluorophenyl)-(R)-1-hydroxypropyl-(R)-2-carbamate] |  |  |  |  | III = Grip strength, effect (%) compared to control treated with vehicle only (male mice (ICR) [1]; concentration administered 120 mg/kg): 120^a (35.4%); IV = Wire hang, effect (%) compared to control treated with vehicle only (male mice (ICR) [2]): 100^a (30.8%)
CC[C@H](OC(N)=O)[C@@H](O)c1ccccc1I [Compound 67, 1-(2-iodophenyl)-(S)-1-hydroxybutyl-(S)-2-carbamate] | 69.1 mg/kg | 26.2 mg/kg |  |  | ED50 (male mice (ICR) [4]): 30.2 mg/kg
C[C@@H](OC(N)=O)[C@@H](O)c1ccccc1Cl [Compound 4, 1-(2-chlorophenyl)-(S)-1-hydroxypropyl-(R)-2-carbamate] | 124 mg/kg | 40 mg/kg | 69.3 mg/kg | 65 mg/kg | ED50 (male ICR mice): 82.4 mg/kg
CC(C)C(OC(N)=O)C(O)c1ccccc1Cl (racemic) [Compound 11, 1-(2-chlorophenyl)-1-hydroxy-3-methyl-butyl-2-carbamate] | 126 mg/kg |  | 102 mg/kg |  | 
CC(C)NC(=O)OC(C)C(O)c1ccccc1Cl (racemic) [Compound 31, 1-(2-chlorophenyl)-1-hydroxypropyl-2-N-isopropylcarbamate] | 50.4 mg/kg | 52.1 mg/kg |  |  | responders at 200 mg/kg (male ICR mice; [5]): 25%
C[C@@H](OC(=O)NC1CCCCC1)[C@H](O)c1ccccc1Cl [Compound 26, 1-(2-chlorophenyl)-(R)-1-hydroxypropyl-(R)-2-N-cyclohexyl carbamate] |  | 63.8 mg/kg |  |  | 
C[C@H](OC(N)=O)[C@H](O)c1ccccc1Cl [Compound 5, 1-(2-chlorophenyl)-(R)-1-hydroxypropyl-(S)-2-carbamate] | 95 mg/kg | 52.5 mg/kg | 66.9 mg/kg | 65.5 mg/kg | ED50 (male ICR mice): 84.1 mg/kg
C[C@@H](OC(=O)NC1CC1)[C@H](O)c1ccccc1Cl (single isomer, unassigned) [Compound 25] | 46.1 mg/kg | 32.9 mg/kg | 30 mg/kg | 18.3 mg/kg | responders at 200 mg/kg (male ICR mice; [5]): 25%
CCC(OC(N)=O)C(O)c1ccccc1Cl (racemic) [Compound 8, 1-(2-chlorophenyl)-1-hydroxybutyl-2-carbamate] | 69.5 mg/kg |  | 50.6 mg/kg |  | 
CCCNC(=O)O[C@@H](C)[C@@H](O)c1ccccc1Cl [Compound 16, 1-(2-chlorophenyl)-(S)-1-hydroxypropyl-(S)-2-N-propylcarbamate] | 67.8 mg/kg | 16.1 mg/kg | 48.7 mg/kg | 61.6 mg/kg | responders at 200 mg/kg (male ICR mice; [5]): 25%
CNC(=O)O[C@@H](C)[C@@H](O)c1ccccc1Cl [Compound 15, 1-(2-chlorophenyl)-(S)-1-hydroxypropyl-(S)-2-N-methylcarbamate] | 83.6 mg/kg | 25.4 mg/kg | 51.4 mg/kg | 42.8 mg/kg | responders at 100 mg/kg (male ICR mice; [5]): 75%
CC(OC(N)=O)C(O)c1ccccc1Cl (racemic) [Compound 3, 1-(2-chlorophenyl)-1-hydroxypropyl-2-carbamate] | 72.6 mg/kg | 34 mg/kg | 57.1 mg/kg | 47.7 mg/kg | ED50 (male ICR mice): 31.4 mg/kg
CC[C@@H](OC(N)=O)[C@H](O)c1ccccc1Cl [Compound 7, 1-(2-chlorophenyl)-(R)-1-hydroxybtyl-(R)-2-carbamate] | 248 mg/kg |  |  |  | 
CC(C)NC(=O)O[C@H](C)[C@H](O)c1ccccc1Cl [Compound 24, 1-(2-chlorophenyl)-(R)-1-hydroxypropyl-(R)-2-N-isopropylcarbamate] | 48.8 mg/kg | 17.8 mg/kg | 38.6 mg/kg | 44.3 mg/kg | 
CC[C@H](OC(N)=O)[C@@H](O)c1ccccc1Cl [Compound 6, 1-(2-chlorophenyl)-(S)-1-hydroxybutyl-(S)-2-carbamate] | 70.7 mg/kg |  |  |  | 
CNC(=O)O[C@H](C)[C@H](O)c1ccccc1Cl [Compound 22, 1-(2-chlorophenyl)-(R)-1-hydroxypropyl-(R)-2-N-methylcarbamate] | 28.3 mg/kg | 22.4 mg/kg | 25.7 mg/kg | 25.1 mg/kg | 
CCCNC(=O)OC(C)C(O)c1ccccc1Cl (racemic) [Compound 30, 1-(2-chlorophenyl)-1-hydroxypropyl-2-N-propylcarbamate] | 65.4 mg/kg | 31.7 mg/kg |  |  | responders at 200 mg/kg (male ICR mice; [5]): 25%
C[C@@H](OC(N)=O)[C@H](O)c1ccc(Cl)cc1Cl [Compound 45, 1-(2,4-dichlorophenyl)-(R)-1-hydroxypropyl-(R)-2-carbamate] |  |  |  |  | responders at 200 mg/kg (male ICR mice; [5]): 0%
C[C@@H](OC(N)=O)[C@H](O)c1ccccc1I [Compound 66, 1-(2-iodophenyl)-(R)-1-hydroxypropyl-(R)-2-carbamate] | 46 mg/kg | 76.3 mg/kg |  |  | ED50 (male mice (ICR) [4]): 67.9 mg/kg
CC(OC(=O)NC1CCCCC1)C(O)c1ccccc1Cl (racemic) [Compound 33, 1-(2-chlorophenyl)-1-hydroxypropyl-2-N-cyclohexylcarbamate] |  | 74.6 mg/kg |  |  | 
CNC(=O)OC(C)C(O)c1ccccc1Cl (racemic) [Compound 29, 1-(2-chlorophenyl)-1-hydroxypropyl-2-N-methylcarbamate] | 46 mg/kg | 38 mg/kg | 30.2 mg/kg | 41 mg/kg | responders at 200 mg/kg (male ICR mice; [5]): 75%
CC(C)[C@H](OC(N)=O)[C@@H](O)c1ccccc1Cl [Compound 9, 1-(2-chlorophenyl)-(S)-1-hydroxy-3-methyl-butyl-(S)-2-carbamate] | 104 mg/kg |  |  |  | 
C[C@H](OC(N)=O)[C@@H](O)c1ccccc1I [Compound 65, 1-(2-iodophenyl)-(S)-1-hydroxypropyl-(S)-2-carbamate] | 42.9 mg/kg | 23.4 mg/kg |  |  | ED50 (male mice (ICR) [4]): 28 mg/kg
C[C@H](OC(N)=O)[C@@H](O)c1ccccc1F [Compound 63, 1-(2-fluorophenyl)-(S)-1-hydroxypropyl-(S)-2-carbamate] | 118 mg/kg |  |  |  | IV = Wire hang, effect (%) compared to control treated with vehicle only (male mice (ICR) [2]): 100^a (84.2%)
